Assay results as given in US5672715A, “Herbicidal substituted 3-aryl-pyrazoles” (Monsanto Company, priority 1995, dated 1997).
Values joined by “and” are separate entries in the source; they are usually repeats but may differ in a detail not shown here. Equal values may be shown once.

Experiments:
Assay type in all cases: in vivo
[1] = test system: Rape; test: post-emergence herbicide test; conditions: post-emergence, 0.25 lb/A; read-out: % plant inhibition
Source text: (§1) Topsoil was placed in aluminum pans having holes in the bottom and compacted to a depth of 1.3 to 1.6 cm from the top of the pan. A predetermined number of seeds of each of several dicotyledonous and monocotyledonous annual plant species and/or vegetative propagules for the perennial plant species were placed on the soil and pressed into the soil surface. The seeds and/or vegetative propagules were covered with soil and leveled. The pans were then placed on a bench in the greenhouse and watered either from overheard irrigation or by subirrigation as needed. After the plants reach the desired age (two to three weeks), each pan, is removed individually to a spraying chamber and sprayed by means of an atomizer, operating at a spray pressure of 170.3 kPa […] at the application rates noted. In the spray solution was an amount of an emulsifying agent mixture to give a spray solution or suspension which contains about 0.4% by volume of the emulsifier. The spray solution or suspension contained a sufficient amount of the candidate chemical in order to give application rates of the active ingredient corresponding to those shown in Tables 4 and 5, while applying a total amount of solution or suspension equivalent to 1870 L/Ha (200 gallons/acre). […] The post-emergent herbicidal activity shown in these tables is the percent inhibition of each plant species. Testing with warm season and cool season plants is shown in tables 4a-4d and […], respectively.

[2] = test system: Morning Glory; test: post-emergence herbicide test; conditions: Ipomoea, post-emergence, 0.25 lb/A; read-out: % plant inhibition
Source text: as §1

[3] = test system: Velvetleaf; test: post-emergence herbicide test; conditions: Abutilon theophrasti, post-emergence, 0.25 lb/A; read-out: % plant inhibition
Source text: as §1

[4] = test system: Seedling Johnsongrass; test: post-emergence herbicide test; conditions: Sorghum halepense, post-emergence, 0.25 lb/A; read-out: % plant inhibition
Source text: as §1

[5] = test system: Wheat; test: post-emergence herbicide test; conditions: Triticum aestivum, post-emergence, 0.25 lb/A; read-out: % plant inhibition
Source text: as §1

[6] = test system: Giant Foxtail; test: post-emergence herbicide test; conditions: Setaria faberi, post-emergence, 0.25 lb/A; read-out: % plant inhibition
Source text: as §1

[7] = test system: Cocklebur; test: post-emergence herbicide test; conditions: Xanthium strumarium, post-emergence, 0.25 lb/A; read-out: % plant inhibition
Source text: as §1

[8] = test system: Corn; test: post-emergence herbicide test; conditions: Zea mays, post-emergence, 0.25 lb/A; read-out: % plant inhibition
Source text: as §1

[9] = test system: Soybean; test: post-emergence herbicide test; conditions: Glycine max, post-emergence, 0.25 lb/A; read-out: % plant inhibition
Source text: as §1

[10] = test system: Blackgrass; test: post-emergence herbicide test; conditions: Alopecurus myosuroides, post-emergence, 0.25 lb/A; read-out: % plant inhibition
Source text: as §1

[11] = test system: Downy Brome; test: post-emergence herbicide test; conditions: Bromus tectorum, post-emergence, 0.25 lb/A; read-out: % plant inhibition
Source text: as §1

[12] = test system: Green Foxtail; test: post-emergence herbicide test; conditions: Setaria viridis, post-emergence, 0.25 lb/A; read-out: % plant inhibition
Source text: as §1

[13] = test system: Barnyardgrass; test: post-emergence herbicide test; conditions: Echinochloa crus-galli, post-emergence, 0.25 lb/A; read-out: % plant inhibition
Source text: as §1

[14] = test system: Bedstraw Catchweed; test: post-emergence herbicide test; conditions: Galium aparine, post-emergence, 0.25 lb/A; read-out: % plant inhibition
Source text: as §1

[15] = test system: Wild Oats; test: post-emergence herbicide test; conditions: Avena fatua, post-emergence, 0.25 lb/A; read-out: % plant inhibition
Source text: as §1

[16] = test system: Common Chickweed; test: post-emergence herbicide test; conditions: post-emergence, 0.25 lb/A; read-out: % plant inhibition
Source text: as §1

[17] = test system: Birdseye Speedwell; test: post-emergence herbicide test; conditions: post-emergence, 0.25 lb/A; read-out: % plant inhibition
Source text: as §1

[18] = test system: Rape; test: pre-emergence herbicide test; conditions: pre-emergence, 0.25 lb/A; read-out: % plant inhibition
Procedure: (§2) Topsoil was placed in an aluminum pan and compacted to a depth of 1.3 to 1.6 cm from the top of the pan. On the top of the soil was placed a predetermined number of seeds of each of several monocotyledonous and dicotyledonous annual plant species and/or vegetative propagules of various perennial plant species. The pan was then level filled with a cover layer of topsoil to which was added a known amount of active ingredient either prior to or after application of the cover layer. The active ingredient was dissolved or suspended in an organic solvent, e.g., acetone, or water as carrier for application to the cover layer. The pans were moved to a greenhouse bench where they were thereafter watered from below as needed to give adequate moisture for germination and growth. In some cases, an initial overhead irrigation of 1/4 inch of water was applied immediately after treatment.
(§3) Approximately 14 days after seeding and treating, the pans were observed and the results (% inhibition) were recorded.
(§4) The tables below summarize the results of the pre-emergence herbicidal activity tests of compounds of this invention tested with warm season plants (Tables 2a-2d) and cool season plants (Tables 3a and 3b). The herbicidal rating shown in these tables is the percent inhibition of each plant species. The plant species usually regarded as weeds are identified in the tables by single letter headings and crop species identified by two letter headings both headings being above the columns in accordance with the following legend: […]

[19] = test system: Wheat; test: pre-emergence herbicide test; conditions: Triticum aestivum, pre-emergence, 0.25 lb/A; read-out: % plant inhibition
Procedure: as §2, §3, §4

[20] = test system: Blackgrass; test: pre-emergence herbicide test; conditions: Alopecurus myosuroides, pre-emergence, 0.25 lb/A; read-out: % plant inhibition
Procedure: as §2, §3, §4

[21] = test system: Downy Brome; test: pre-emergence herbicide test; conditions: Bromus tectorum, pre-emergence, 0.25 lb/A; read-out: % plant inhibition
Procedure: as §2, §3, §4

[22] = test system: Green Foxtail; test: pre-emergence herbicide test; conditions: Setaria viridis, pre-emergence; 0.25 lb/A; read-out: % plant inhibition
Procedure: as §2, §3, §4

[23] = test system: Bedstraw Catchweed; test: pre-emergence herbicide test; conditions: Galium aparine, pre-emergence, 0.25 lb/A; read-out: % plant inhibition
Procedure: as §2, §3, §4

[24] = test system: Wild Oats; test: pre-emergence herbicide test; conditions: Avena fatua, pre-emergence, 0.25 lb/A; read-out: % plant inhibition
Procedure: as §2, §3, §4

[25] = test system: Common Chickweed; test: pre-emergence herbicide test; conditions: pre-emergence, 0.25 lb/A; read-out: % plant inhibition
Procedure: as §2, §3, §4

[26] = test system: Birdseye Speedwell; test: pre-emergence herbicide test; conditions: pre-emergence, 0.25 lb/A; read-out: % plant inhibition
Procedure: as §2, §3, §4

[27] = test system: Corn; test: pre-emergence herbicide test; conditions: 0.25 lb/A
Procedure: as §2, §3, §4

[28] = test system: Soybean; test: pre-emergence herbicide test; conditions: 0.25 lb/A
Procedure: as §2, §3, §4

Row | SMILES | inhibition at 280.212 g/ha [1] [%] | inhibition at 280.212 g/ha [2] [%] | inhibition at 280.212 g/ha [3] [%] | inhibition at 280.212 g/ha [4] [%] | inhibition at 280.212 g/ha [5] [%] | inhibition at 280.212 g/ha [6] [%] | inhibition at 280.212 g/ha [7] [%] | inhibition at 280.212 g/ha [8] [%] | inhibition at 280.212 g/ha [9] [%] | inhibition at 280.212 g/ha [10] [%] | inhibition at 280.212 g/ha [11] [%] | inhibition at 280.212 g/ha [12] [%] | inhibition at 280.212 g/ha [13] [%] | inhibition at 280.212 g/ha [14] [%] | inhibition at 280.212 g/ha [15] [%] | inhibition at 280.212 g/ha [16] [%] | inhibition at 280.212 g/ha [17] [%] | inhibition at 280.212 g/ha [18] [%] | inhibition at 280.212 g/ha [19] [%] | inhibition at 280.212 g/ha [20] [%] | also measured
1 | COCc1cc(-c2nn(C)c(C(F)(F)F)c2C)c(F)cc1Cl [Compound 11] | 5 | 25 | 50 | 5 | 6 | 0 | 15 | 15 | 20 | 15 | 10 | 25 | 0 | 50 | 5 | 10 | 60 | 15 | 0 | 60 | inhibition at 280.212 g/ha [21]: 10%; inhibition at 280.212 g/ha [22]: 100%; inhibition at 280.212 g/ha [23]: 75%; inhibition at 280.212 g/ha [24]: 20%; inhibition at 280.212 g/ha [25]: 25%; inhibition at 280.212 g/ha [26]: 95%
2 | CC(C)OC(=O)c1cc(-c2nn(C)c(C(F)(F)F)c2C=O)c(F)cc1Cl [Compound 12, 2-Chloro-4-fluoro-5-[4-formyl-1-methyl-5-(trifluoromethyl)-1H-pyrazol-3-yl]benzoic acid, 1-methylethyl ester] | 100 | 99 | 99 | 65 | 30 | 35 | 98 | 15 | 85 | 50 | 90 | 90 | 80 | 95 | 85 | 100 | 100 | 15 | 5 | 60 | inhibition at 280.212 g/ha [21]: 60%; inhibition at 280.212 g/ha [22]: 98%; inhibition at 280.212 g/ha [23]: 65%; inhibition at 280.212 g/ha [24]: 60%; inhibition at 280.212 g/ha [25]: 85%; inhibition at 280.212 g/ha [26]: 80%
3 | Cc1cc(-c2nn(C)c(C(F)(F)F)c2C)c(F)cc1Cl [Compound 33] | 5 | 10 | 10 | 0 | 5 | 0 | 0 | 0 | 15 | 5 | 5 | 15 | 0 | 10 | 5 | 10 | 15 | 10 | 0 | 40 | % plant inhibition [27]: 10%; % plant inhibition [28]: 5% and 0%; inhibition at 280.212 g/ha [21]: 10%; inhibition at 280.212 g/ha [22]: 50%; inhibition at 280.212 g/ha [23]: 45%; inhibition at 280.212 g/ha [24]: 5%; inhibition at 280.212 g/ha [25]: 30%; inhibition at 280.212 g/ha [26]: 55%
